According to article PMC12844124, “Synthesis and Study of Substituted Chalcones Combined with Fluoroazobenzenes—New Photoswitches for Application in Biological Systems” (Molecules, 2026):

Legend:
[1] = test system: BJ fibroblasts; experiment: MTS cell proliferation assay, BJ fibroblasts; assay type: cell-based, human; conditions: for IC50: Homo sapiens, Fibroblast
Procedure: (§1) Human BJ fibroblasts (American Type Cell Culture Collection, Manassas, VA, USA, CRL-2522) and human prostate cancer cell line PC-3 (American Type Cell Culture Collection, Manassas, VA, USA, CRL-1435), derived from bone metastases, were routinely grown in […]) Medium (ThermoFisher, Waltham, MA, USA, 21127-022) and supplemented with heat-inactivated 10% Fetal Bovine Serum (Biowest, France, […]) and 1% antibiotic solution (Biowest, Nuaillé, France, L0022), in a humidified 5% CO2 atmosphere at 37 °C. Cells were used between 3 and 20 passages. The 96-well plates were prepared by seeding 5 × 10^3 or 2.5 × 10^3 cells per well, for 24 and 48 h treatments, respectively, with at least five technical and two biological repeats. […] The cells were treated with either the Z conformer of 17j, with continuous illumination with 525 nm light, or the E conformer. The Z conformer was prepared by illuminating its DMSO solution with 525 nm light overnight. The cell proliferation was analyzed with CellTiter Aqueous One Solution Cell Proliferation MTS (3-(4,5-dimethylthiazol-2-yl)-5-(3-carboxymethoxyphenyl)-2-(4-sulfophenyl)-2H-tetrazolium) Assay (Promega, Madison, WI, USA, G5430) after 24 or 48 h of treatment. The absorbance was measured at 490 and 670 nm with FLUOStar Omega plate reader (BMG LABTECH GmbH, Ortenberg, Germany). The statistical analysis was performed within R 4.5.1 project. […] The log-logistic four parametric model (4PL), with the lower limit boundary set to 0 and group fitting, was used, as available in the drc package, to fit cell proliferation data. The residuals were checked for normality with QQ and density plots and considered as sufficiently normally distributed. The assessment metrics for model goodness of fit were performed with functions available in the drc package and with custom ones. When appropriate, the delta method was applied to obtain error of central tendency. To assess the goodness of fit for each of the biological replicates, deviance R^2 (DR^2) was calculated and assessed. […] The DR^2 was calculated according to the following Equation: 1 - (Dres/Dnull), where Dres-residual deviance and Dnull-null deviance (deviance of the model with mean as a predicted value). The null hypothesis was assessed with the two-way ANOVA with Tukey's post hoc test for multiple comparisons or with the two-way t-test when only two groups were compared. The differences in the cell cycle percentages were assessed with the two-way ANOVA with Tukey's post hoc test.

[2] = test system: PC-3 cells; experiment: MTS cell proliferation assay, PC-3; assay type: cell-based, human; conditions: for IC50: Homo sapiens
Procedure: as §1, with “The residuals were checked for normality with QQ and density plots and considered as sufficiently normally distributed.” left out

[3] = Changes over time of Z to E transition by 19F NMR; assay type: physicochemical; conditions: light 525 nm, 100 mM in DMSO
From the text: We can observe that for electromagnetic radiation in the range of wavelengths 390 nm to 610 nm, transitions from E to Z of about 0–76% are obtained. The best results for all compounds are in visible wavelengths 505 nm or 525 nm (30.59–75.44%). From analyzing Figure 2 we can draw the following conclusions: all synthesized compounds undergo switching under visible light (this is important because UV radiation can damage the DNA of cells, inhibiting replication and, as a result, preventing cell division). For the 2,6-difluoro substituents (17i), (17j), (17k), and (17l) with values of 74.84%, 73.2%, 74.39%, and 75.44%, respectively, the largest share of the Z configuration is at (525 nm) and, for the rest of (17a), (17b), (17c), (17e), (17f), and (17g), it is in range of 30.57–47.13% at 505 nm. […] Multiple cycles of photoreversible switching under alternating green and blue light irradiation, with no significant photobleaching or degradation, confirmed the repeatable and robust photochromic conversion of the synthesized azobenzenes (Figure 2b). Then we measured changes over time (transitions from Z to E, upon irradiation with 505 nm for (17a–17c) and (17e–17g), and 525 nm for (17i–17l) compounds (Figure 3, and see Section S4.3 in Supplementary Materials).

IC50 difference between PC-3 and BJ cells ([2]; E conformer): 2.2 fold
IC50 ([2]; PC-3, 24 h, E conformer, 24 h incubation): 14.6 ± 1 µM
IC50 ([2]; PC-3, 24 h, Z conformer, 525 nm illumination, 24 h treatment): 12 ± 4.42 µM
IC50 ([2]; PC-3, 48 h, E conformer, 48 h incubation): 5.8 ± 0.8 µM
IC50 ([2]; PC-3, 48 h, Z conformer, 525 nm illumination, 48 h treatment): 4.75 ± 1 µM
Z isomer, changes over time ([3]; 0 h): 73.2%
Z isomer, changes over time ([3]; 1 h): 72.55%
Z isomer, changes over time ([3]; 2 h): 71.89%
Z isomer, changes over time ([3]; 3 h): 71.23%
Z isomer, changes over time ([3]; 4 h): 71%
Z isomer, changes over time ([3]; 5 h): 70.01%
Z isomer, changes over time ([3]; 6 h): 69.58%
Z isomer, changes over time ([3]; 7 h): 69.12%
Z isomer, changes over time ([3]; 8 h): 67.9%
Δ (Z to E change 0 h to 8 h) [3]: 5.3%
SMILES: COc1cc(/C=C/C(=O)c2cccc(/N=N/c3c(F)cccc3F)c2)cc(OC)c1 [Compound 17j]
growth inhibition (normalized asymptote) ([1]; E conformer, 48 h): 5.3 ± 1.2%
IC50 ([1]; 24 h, E conformer, 24 h treatment): 6.59 ± 0.38 µM
IC50 ([1]; 24 h, Z conformer, 24 h treatment): 10.1 ± 1.4 µM
IC50 ([1]; 48 h, E conformer, 48 h treatment): 2.66 ± 0.15 µM
IC50 ([1]; 48 h, Z conformer, 48 h treatment): 4.02 ± 0.39 µM
growth inhibition (normalized asymptote) ([1]; Z conformer, 24 h): 18.7 ± 9.7%
growth inhibition (normalized asymptote) ([1]; Z conformer, 48 h): 13.3 ± 6.1%
normalized asymptote (normalized limit) ([2]; E conformer, 24 h): 50.0 ± 9.9%
normalized asymptote (normalized limit) ([2]; E conformer, 48 h): 15.0 ± 0.2%
normalized asymptote (ratio of lower to upper asymptote) ([2]; Z conformer, 24 h): 44.9 ± 3.7%
normalized asymptote (ratio of lower to upper asymptote) ([2]; Z conformer, 48 h): 0.9 ± 0.9%
